According to the NIST ThermoML archive (doi:10.1016/j.fluid.2008.06.007):
± gives the expanded uncertainty stated by the source.

Settings: Liquid, Vibrating tube method

CCCCCO [pentan-1-ol]
Settings	mass density [kg/m3]
293.15 K, 100 kPa	814.7 ± 1
293.15 K, 10000 kPa	821.1 ± 1
293.15 K, 20000 kPa	827.3 ± 1.1
293.15 K, 30000 kPa	833.2 ± 1.1
293.15 K, 40000 kPa	838.6 ± 1.1
293.15 K, 50000 kPa	843.6 ± 1.1
293.15 K, 60000 kPa	848.5 ± 1.1
293.15 K, 70000 kPa	853.1 ± 1.1
293.15 K, 80000 kPa	857.4 ± 1.1
293.15 K, 90000 kPa	861.7 ± 1.2
293.15 K, 100000 kPa	865.8 ± 1.2
293.15 K, 110000 kPa	869.6 ± 1.2
293.15 K, 120000 kPa	873.2 ± 1.2
293.15 K, 130000 kPa	876.9 ± 1.2
293.15 K, 140000 kPa	880.3 ± 1.2
303.15 K, 100 kPa	807.3 ± 1
303.15 K, 10000 kPa	814.4 ± 1.1
303.15 K, 20000 kPa	820.7 ± 1.1
303.15 K, 30000 kPa	826.7 ± 1.1
303.15 K, 40000 kPa	832.2 ± 1.1
303.15 K, 50000 kPa	837.5 ± 1.1
303.15 K, 60000 kPa	842.4 ± 1.1
303.15 K, 70000 kPa	847 ± 1.1
303.15 K, 80000 kPa	851.6 ± 1.1
303.15 K, 90000 kPa	855.8 ± 1.2
303.15 K, 100000 kPa	860.1 ± 1.2
303.15 K, 110000 kPa	864.1 ± 1.2
303.15 K, 120000 kPa	868 ± 1.2
303.15 K, 130000 kPa	871.7 ± 1.2
303.15 K, 140000 kPa	875.2 ± 1.2
313.15 K, 100 kPa	799.8 ± 1.1
313.15 K, 10000 kPa	807.4 ± 1.1
313.15 K, 20000 kPa	814.1 ± 1.1
313.15 K, 30000 kPa	820.2 ± 1.1
313.15 K, 40000 kPa	826 ± 1.1
313.15 K, 50000 kPa	831.5 ± 1.1
313.15 K, 60000 kPa	836.6 ± 1.1
313.15 K, 70000 kPa	841.4 ± 1.1
313.15 K, 80000 kPa	846.1 ± 1.2
313.15 K, 90000 kPa	850.5 ± 1.2
313.15 K, 100000 kPa	854.8 ± 1.2
313.15 K, 110000 kPa	858.9 ± 1.2
313.15 K, 120000 kPa	862.8 ± 1.2
313.15 K, 130000 kPa	866.6 ± 1.2
313.15 K, 140000 kPa	870.2 ± 1.3
323.15 K, 100 kPa	792.5 ± 1.1
323.15 K, 10000 kPa	800.3 ± 1.1
323.15 K, 20000 kPa	807.3 ± 1.1
323.15 K, 30000 kPa	813.7 ± 1.1
323.15 K, 40000 kPa	819.8 ± 1.1
323.15 K, 50000 kPa	825.4 ± 1.1
323.15 K, 60000 kPa	830.7 ± 1.1
323.15 K, 70000 kPa	835.7 ± 1.1
323.15 K, 80000 kPa	840.4 ± 1.2
323.15 K, 90000 kPa	845 ± 1.2
323.15 K, 100000 kPa	849.3 ± 1.2
323.15 K, 110000 kPa	853.6 ± 1.2
323.15 K, 120000 kPa	857.6 ± 1.2
323.15 K, 130000 kPa	861.5 ± 1.3
323.15 K, 140000 kPa	865.3 ± 1.3
333.15 K, 100 kPa	784.4 ± 1.1
333.15 K, 10000 kPa	792.7 ± 1.1
333.15 K, 20000 kPa	800.1 ± 1.1
333.15 K, 30000 kPa	806.8 ± 1.1
333.15 K, 40000 kPa	813.1 ± 1.1
333.15 K, 50000 kPa	818.9 ± 1.1
333.15 K, 60000 kPa	824.4 ± 1.1
333.15 K, 70000 kPa	829.7 ± 1.2
333.15 K, 80000 kPa	834.6 ± 1.2
333.15 K, 90000 kPa	839.2 ± 1.2
333.15 K, 100000 kPa	843.7 ± 1.2
333.15 K, 110000 kPa	848 ± 1.2
333.15 K, 120000 kPa	852.1 ± 1.3
333.15 K, 130000 kPa	856 ± 1.3
333.15 K, 140000 kPa	860 ± 1.3
343.15 K, 100 kPa	776.5 ± 1.1
343.15 K, 10000 kPa	785.2 ± 1.1
343.15 K, 20000 kPa	792.9 ± 1.1
343.15 K, 30000 kPa	799.9 ± 1.1
343.15 K, 40000 kPa	806.6 ± 1.1
343.15 K, 50000 kPa	812.6 ± 1.1
343.15 K, 60000 kPa	818.3 ± 1.1
343.15 K, 70000 kPa	823.7 ± 1.2
343.15 K, 80000 kPa	828.7 ± 1.2
343.15 K, 90000 kPa	833.5 ± 1.2
343.15 K, 100000 kPa	838.2 ± 1.2
343.15 K, 110000 kPa	842.5 ± 1.3
343.15 K, 120000 kPa	846.8 ± 1.3
343.15 K, 130000 kPa	850.9 ± 1.3
343.15 K, 140000 kPa	854.8 ± 1.3
353.15 K, 100 kPa	768.1 ± 1.1
353.15 K, 10000 kPa	777.3 ± 1.1
353.15 K, 20000 kPa	785.6 ± 1.1
353.15 K, 30000 kPa	792.9 ± 1.1
353.15 K, 40000 kPa	799.8 ± 1.1
353.15 K, 50000 kPa	806.1 ± 1.1
353.15 K, 60000 kPa	812 ± 1.2
353.15 K, 70000 kPa	817.6 ± 1.2
353.15 K, 80000 kPa	822.8 ± 1.2
353.15 K, 90000 kPa	827.8 ± 1.2
353.15 K, 100000 kPa	832.6 ± 1.2
353.15 K, 110000 kPa	837.2 ± 1.3
353.15 K, 120000 kPa	841.6 ± 1.3
353.15 K, 130000 kPa	845.8 ± 1.3
353.15 K, 140000 kPa	849.7 ± 1.3
363.15 K, 100 kPa	759.4 ± 1.1
363.15 K, 10000 kPa	769.2 ± 1.1
363.15 K, 20000 kPa	777.7 ± 1.1
363.15 K, 30000 kPa	785.6 ± 1.1
363.15 K, 40000 kPa	792.6 ± 1.1
363.15 K, 50000 kPa	799.2 ± 1.1
363.15 K, 60000 kPa	805.5 ± 1.2
363.15 K, 70000 kPa	811.3 ± 1.2
363.15 K, 80000 kPa	816.7 ± 1.2
363.15 K, 90000 kPa	821.8 ± 1.2
363.15 K, 100000 kPa	826.8 ± 1.3
363.15 K, 110000 kPa	831.3 ± 1.3
363.15 K, 120000 kPa	835.8 ± 1.3
363.15 K, 130000 kPa	840.1 ± 1.3
363.15 K, 140000 kPa	844.2 ± 1.3
373.15 K, 100 kPa	750.7 ± 1.1
373.15 K, 10000 kPa	761.2 ± 1.1
373.15 K, 20000 kPa	770.3 ± 1.1
373.15 K, 30000 kPa	778.2 ± 1.1
373.15 K, 40000 kPa	785.7 ± 1.1
373.15 K, 50000 kPa	792.5 ± 1.2
373.15 K, 60000 kPa	798.9 ± 1.2
373.15 K, 70000 kPa	804.9 ± 1.2
373.15 K, 80000 kPa	810.5 ± 1.2
373.15 K, 90000 kPa	815.8 ± 1.2
373.15 K, 100000 kPa	820.9 ± 1.3
373.15 K, 110000 kPa	825.7 ± 1.3
373.15 K, 120000 kPa	830.3 ± 1.3
373.15 K, 130000 kPa	834.7 ± 1.3
373.15 K, 140000 kPa	839 ± 1.4
383.15 K, 100 kPa	741.5 ± 1.1
383.15 K, 10000 kPa	752.3 ± 1.1
383.15 K, 20000 kPa	761.9 ± 1.1
383.15 K, 30000 kPa	770.7 ± 1.1
383.15 K, 40000 kPa	778.5 ± 1.1
383.15 K, 50000 kPa	785.7 ± 1.2
383.15 K, 60000 kPa	792.3 ± 1.2
383.15 K, 70000 kPa	798.5 ± 1.2
383.15 K, 80000 kPa	804.3 ± 1.2
383.15 K, 90000 kPa	809.7 ± 1.3
383.15 K, 100000 kPa	815 ± 1.3
383.15 K, 110000 kPa	819.9 ± 1.3
383.15 K, 120000 kPa	824.7 ± 1.3
383.15 K, 130000 kPa	829.2 ± 1.4
383.15 K, 140000 kPa	833.5 ± 1.4
393.15 K, 100 kPa	731.7 ± 1.1
393.15 K, 10000 kPa	743.4 ± 1.1
393.15 K, 20000 kPa	753.7 ± 1.1
393.15 K, 30000 kPa	762.8 ± 1.1
393.15 K, 40000 kPa	771 ± 1.1
393.15 K, 50000 kPa	778.6 ± 1.2
393.15 K, 60000 kPa	785.6 ± 1.2
393.15 K, 70000 kPa	792 ± 1.2
393.15 K, 80000 kPa	798.1 ± 1.2
393.15 K, 90000 kPa	803.7 ± 1.3
393.15 K, 100000 kPa	809.1 ± 1.3
393.15 K, 110000 kPa	814.2 ± 1.3
393.15 K, 120000 kPa	819.1 ± 1.4
393.15 K, 130000 kPa	823.7 ± 1.4
393.15 K, 140000 kPa	828.1 ± 1.4
403.15 K, 100 kPa	721.7 ± 1.1
403.15 K, 10000 kPa	734.4 ± 1.1
403.15 K, 20000 kPa	745.3 ± 1.1
403.15 K, 30000 kPa	754.9 ± 1.1
403.15 K, 40000 kPa	763.4 ± 1.2
403.15 K, 50000 kPa	771.3 ± 1.2
403.15 K, 60000 kPa	778.4 ± 1.2
403.15 K, 70000 kPa	785.1 ± 1.2
403.15 K, 80000 kPa	791.3 ± 1.3
403.15 K, 90000 kPa	797.2 ± 1.3
403.15 K, 100000 kPa	802.8 ± 1.3
403.15 K, 110000 kPa	808 ± 1.3
403.15 K, 120000 kPa	813 ± 1.4
403.15 K, 130000 kPa	817.8 ± 1.4
403.15 K, 140000 kPa	822.3 ± 1.4
